42 molecules from patent publication US10273208B2, “Screening methods for the binding affinity of chemical entities to biological molecules and NEDD4-1 inhibitors identified by the screening methods” (Northwestern University, priority 2014, dated 2019) can be followed below.

Assay [1] is described as follows: NMR rate studies: pseudo-first order reaction with N-acetylcysteine methyl ester. In kind it is physicochemical. To be noted: electrophile 10 mM, N-acetyl cysteine methyl ester 78 mM, 2:1 deuterated PBS:DMSO-d6, pD 8, NMR. The text has this:
We further validated the utility of electrophile 3 as a thiol-reactive tether by making a library of one hundred structurally diverse drug-like fragments 6-105 containing this electrophile. The library was constructed with an HBTU amide coupling with commercially available carboxylic acid fragments (FIG. 2A). The acids were selected with “rule of three” criteria^15 and a subsequent diversity analysis. We measured the reaction rates for the first fifty fragments to confirm that this library would have balanced cysteine reactivity and could be used for irreversible tethering (FIG. 2B).
N-Acetyl cysteine methyl ester was dissolved in 2:1 deuterated PBS:DMSO-d6 (78 mM) with 10 mM CH2Cl2 as an internal standard. The electrophile (10 mM) was then added immediately prior to acquiring spectra. H1 spectra were taken every 30 s for 30 min (or every 4 s for 5 min for highly reactive compounds 1c and 2a-c). The integrals of the vinyl peaks were used to determine the concentration of the electrophile over time. The natural logarithm of the concentration of the electrophile versus time was then plotted using GraphPad Prism software. The linear slope of this plot was used to determine the pseudofirst order rate constant. Deuterated PBS recipe: 20 mM Na3PO4, 50 mM NaCl in D2O was adjusted to pD 8 with DC1 solution.

In assay [2] the target is T1, NEDD4-1 HECT domain (Homo sapiens, UniProt P46934).
T1 construct: to elute NEDD4-1 HECT domain (50 mM HEPES, 150 mM NaCl, 0.1 mM EDTA 1 mM DTT); GST (N, cleaved yes); made in house; host or cells: E. coli BL21
T1 sequence (P46934 with tags, fused parts or gaps): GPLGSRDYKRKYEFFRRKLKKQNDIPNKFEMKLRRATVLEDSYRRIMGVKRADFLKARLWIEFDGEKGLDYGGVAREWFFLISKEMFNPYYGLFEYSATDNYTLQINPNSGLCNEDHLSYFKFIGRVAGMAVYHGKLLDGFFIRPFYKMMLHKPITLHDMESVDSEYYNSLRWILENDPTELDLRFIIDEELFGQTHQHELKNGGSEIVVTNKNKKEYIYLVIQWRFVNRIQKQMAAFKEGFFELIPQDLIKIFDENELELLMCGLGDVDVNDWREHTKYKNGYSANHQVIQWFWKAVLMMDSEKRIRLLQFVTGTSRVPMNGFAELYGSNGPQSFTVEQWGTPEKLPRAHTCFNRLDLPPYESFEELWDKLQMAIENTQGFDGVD
Kind of assay: Covalent labeling of NEDD4-1 HECT domain (gel filtration, whole protein ESI-MS). In kind it is binding. To be noted: compound 100 μM, NEDD4-1 HECT 10 μM, 4 h. Here is the method: 10 μM of NEDD4-1 HECT domain in 50 mM HEPES 150 mM NaCl 0.1 mM EDTA 1 mM DTT pH 7.5 was treated with a mixture of ten fragments (from 10 mM each DMSO stock solution mixtures; final concentrations: 100 μM of each fragment, and 1% DMSO). Fragment structures and mixture compositions were the same as reported previously. The reaction mixture was incubated for 4 h at 23° C. before being passed through Zeba gel filtration columns (Thermo, 7K MWCO) to remove unreacted fragments. The protein solution was then immediately analyzed by whole protein LC/ESI-MS.
Accurate-mass data were obtained on an Agilent 6210A LC-TOF mass spectrometer in positive ion mode using electrospray ionization. Samples were chromatographed on the LC-TOF instrument using a Poroshell 120 EC-C18 HPLC column (2.1*50 mm, 2.7 micron), an Agilent Series 1200 HPLC binary pump, and an Agilent Series 1200 autoinjector. The HPLC column was held at 45° C. and the autosampler was held at 8° C. Mobile Phase A was a solution of 0.1% formic acid in water:acetonitrile (19:1). Mobile Phase B was a solution of 0.1% formic acid in acetonitrile. The flow rate was set to 250 μL/min. The gradient used was 0% B for 2 minutes, ramping linearly to 90% B from 2 minutes to 5 minutes, holding at 90% B from 5 minutes to 7 minutes, and then returning to 0% B at 7.1 minutes. The column was allowed to equilibrate for 2.7 minutes before the next injection was initiated. The eluent from the column was diverted to waste for the first 2 minutes. The spectra were acquired from 301 to 3200 daltons using a gas temperature of 340° C., a gas flow of 7 liters/min, and the nebulizer gas at 35 psi. The following voltages were used: capillary 4200 V, fragmentor 230V, skimmer 64V, and octapole RF peak 250V. Spectra were acquired at a rate of 1 spectra/sec. The data was processed using MassHunter software version B.02.00. Maximum entropy deconvolutions were performed with a Mass Step of 1, S/N Threshold of 30, Average Mass at 90% of Peak Height, and 5 Charge States Minimum.
10 μM of NEDD4-1 HECT domain in 50 mM HEPES 150 mM NaCl 0.1 mM EDTA 1 mM DTT pH 7.5 was treated with 1 mM of inhibitor 1 or 2 (from 100 mM DMSO stock solution; final concentrations: 1 mM of inhibitor, 1% DMSO, and 0.2% CHAPS to solubilize the inhibitors at 1 mM). The reaction mixture was incubated for 4 h at 23° C. before being passed through Zeba gel filtration columns (Thermo, 7K MWCO) to remove unreacted inhibitor. The protein solution was then immediately used for crystallization or enzymatic assay.
Background: SEC sorts molecules by how far they enter the pores of the column.

`COC(=O)/C=C/CNC(=O)c1cc(C2CC2)nc2ccccc12` [Compound 52] displayed a k pseudo-first order in assay [1] of 0.0005984 s⁻¹.

As to `CCOc1ccc2c(c1)c(C(=O)NC/C=C/C(=O)OC)c(C)n2C` [Compound 10, Methyl(E)-4-(5-ethoxy-1,2-dimethyl-1H-indole-3-carboxamido)but-2-enoate], the “labeling of NEDD4-1 HECT domain (qualitative)” value in assay [2] is recorded as “did not label NEDD4-1”.

The molecule `COC(=O)/C=C/CNC(=O)c1cc(Br)ccc1N` [Compound 35] had a k pseudo-first order in assay [1] of 0.0005755 s⁻¹.

The molecule `COC(=O)/C=C/CNC(=O)c1ccc(CN2CCc3ccccc3C2)cc1` [Compound 30] showed a k pseudo-first order in assay [1] of 0.0006579 s⁻¹.

Take `COC(=O)/C=C/CNC(=O)c1c[nH]c2ccc(OC)cc12` [Compound 13, Methyl(E)-4-(5-methoxy-1H-indole-3-carboxamido)but-2-enoate]: in assay [1], the k pseudo-first order was found to be 0.0003582 s⁻¹.

For `COC(=O)/C=C/CNC(=O)c1ccccc1N(C)C(=O)c1ccco1` [Compound 51], the k pseudo-first order in assay [1] is 0.0005048 s⁻¹.

`COC(=O)/C=C/CNC(=O)[C@@H]1CCCN1C(=O)C1CC1` [Compound 31] showed a k pseudo-first order in assay [1] of 0.0005193 s⁻¹.

In assay [1], `COC(=O)/C=C/CNC(=O)c1cc(Br)ccc1OC` [Compound 38] came in with a k pseudo-first order of 0.0007728 s⁻¹.

`COC(=O)/C=C/CNC(=O)C(CO)c1ccccc1` (stereo not drawn) [Compound 36]: the k pseudo-first order in assay [1] was determined as 0.00034 s⁻¹.

`COC(=O)/C=C/CNC(=O)Cn1c(=O)cc(C)c2ccccc21` [Compound 55] came in with a k pseudo-first order in assay [1] of 0.000452 s⁻¹.

In turn, `COC(=O)/C=C/CNC(=O)c1cnn(Cc2ccccc2)c1` [Compound 49] yielded a k pseudo-first order in assay [1] of 0.0004975 s⁻¹.

As for `COC(=O)/C=C/CNC(=O)c1n[nH]cc1Br` [Compound 50], the k pseudo-first order in assay [1] was 0.0006514 s⁻¹.

Take `COC(=O)/C=C/CNC(=O)c1c(C)[nH]c2c1C(=O)CCC2` [Compound 41]: the k pseudo-first order in assay [1] was 0.0005635 s⁻¹.

`COC(=O)/C=C/CNC(=O)Cc1ccncc1` [Compound 25]: the k pseudo-first order in assay [1] was found to be 0.0005202 s⁻¹.

As for `COC(=O)/C=C/CNC(=O)c1ccccc1Br` [Compound 34], the k pseudo-first order in assay [1] amounted to 0.0007717 s⁻¹.

The molecule `C=CCN1CC(C(=O)NC/C=C/C(=O)OC)CC1=O` (stereo not drawn) [Compound 40] showed a k pseudo-first order in assay [1] of 0.0004793 s⁻¹.

On to `COC(=O)/C=C/CNC(=O)c1cc2c([nH]c1=O)CCCC2` [Compound 44], for which the k pseudo-first order in assay [1] is 0.0006746 s⁻¹.

In the case of `COC(=O)/C=C/CNC(=O)c1ccc(-c2ccc(C)o2)cc1` [Compound 23], the k pseudo-first order in assay [1] was 0.0004979 s⁻¹.

In turn, `CCC(C(=O)NC/C=C/C(=O)OC)N1Cc2ccccc2C1=O` (stereo not drawn) [Compound 18] displayed a k pseudo-first order in assay [1] of 0.0006093 s⁻¹.

As for `COC(=O)/C=C/CNC(=O)Cn1nc(C)cc1C` [Compound 37], the k pseudo-first order in assay [1] worked out at 0.0004493 s⁻¹.

`COC(=O)/C=C/CNC(=O)c1ccc(Cl)cn1` [Compound 53] yielded a k pseudo-first order in assay [1] of 0.0005521 s⁻¹.

`COC(=O)/C=C/CNC(=O)CN(C)C1CCCC1` [Compound 20] had a k pseudo-first order in assay [1] of 0.0005603 s⁻¹.

Consider `COC(=O)/C=C/CNC(=O)c1cccc(Cl)n1` [Compound 33], for which the k pseudo-first order in assay [1] worked out at 0.0006348 s⁻¹.

In assay [1], `COC(=O)/C=C/CNC(=O)c1c(C)nc2cc(C)ccn12` [Compound 45] had a k pseudo-first order of 0.0003961 s⁻¹.

The molecule `COC(=O)/C=C/CNC(=O)C1Cc2ccccc2CN1C` (stereo not drawn) [Compound 16] came in with a k pseudo-first order in assay [1] of 0.0006414 s⁻¹.

As to `COC(=O)/C=C/CNC(=O)c1ccc(OC)cc1` [Compound 28], the k pseudo-first order in assay [1] was found to be 0.00042 s⁻¹.

`COC(=O)/C=C/CNC(=O)C(C)n1cnc2ccccc21` (stereo not drawn) [Compound 48] yielded a k pseudo-first order in assay [1] of 0.000468 s⁻¹.

Take `COC(=O)/C=C/CNC(=O)c1c(C)n(C)c2ccc(OC)cc12` [Compound 43]: the k pseudo-first order in assay [1] stood at 0.0007616 s⁻¹.

Molecule `COC(=O)/C=C/CNC(=O)c1c(C)[nH]c2ccc(OC)cc12` [Compound 12, Methyl(E)-4-(5-methoxy-2-methyl-1H-indole-3-carboxamido)but-2-enoate] returned a k pseudo-first order in assay [1] of 0.000654 s⁻¹.

Molecule `COC(=O)/C=C/CNC(=O)Cc1c(C)nn(-c2ccccc2)c1C` [Compound 42] yielded a k pseudo-first order in assay [1] of 0.0005281 s⁻¹.

Molecule `COC(=O)/C=C/CNC(=O)C1COc2c(cccc2OC)C1` (stereo not drawn) [Compound 26] yielded a k pseudo-first order in assay [1] of 0.0006107 s⁻¹.

Take `COC(=O)/C=C/CNC(=O)CNC(=O)c1ccccc1Br` [Compound 54]: the k pseudo-first order in assay [1] amounted to 0.0005048 s⁻¹.

Molecule `COC(=O)/C=C/CNC(=O)Cn1ncc2ccccc21` [Compound 21] registered a k pseudo-first order in assay [1] of 0.0003327 s⁻¹.

For `COC(=O)/C=C/CNC(=O)c1sc(C(C)C)nc1C` [Compound 17], in assay [1], the k pseudo-first order came out at 0.0006156 s⁻¹.

In turn, `COC(=O)/C=C/CNC(=O)C1CC(=O)N(C)c2ccccc21` (stereo not drawn) [Compound 15] displayed a k pseudo-first order in assay [1] of 0.0007733 s⁻¹.

With `COC(=O)/C=C/CNC(=O)c1ccnc(C)c1` [Compound 29], the k pseudo-first order in assay [1] came out at 0.0004038 s⁻¹.

Molecule `COC(=O)/C=C/CNC(=O)c1cnn(-c2ccccc2OC)c1` [Compound 24] gave a k pseudo-first order in assay [1] of 0.0005202 s⁻¹.

In assay [1], `COC(=O)/C=C/CNC(=O)c1c[nH]nc1-c1cccc(F)c1` [Compound 47] yielded a k pseudo-first order of 0.0006539 s⁻¹.

`COC(=O)/C=C/CNC(=O)c1cc(C)nc2ccc(C)cc12` [Compound 27] registered a k pseudo-first order in assay [1] of 0.0006665 s⁻¹.

As for `CCC(C(=O)NC/C=C/C(=O)OC)n1cccn1` (stereo not drawn) [Compound 39], the k pseudo-first order in assay [1] is 0.000651 s⁻¹.

Molecule `CCn1nc(C(C)C)cc1C(=O)NC/C=C/C(=O)OC` [Compound 46] yielded a k pseudo-first order in assay [1] of 0.0007806 s⁻¹.

Molecule `CCn1c(C)c(C(=O)NC/C=C/C(=O)OC)c2cc(OC)ccc21` [Compound 14, Methyl(E)-4-(1-ethyl-5-methoxy-2-methyl-1H-indole-3-carboxamido)but-2-enoate] returned a k pseudo-first order in assay [1] of 0.0005016 s⁻¹.
